O=C(O)c1ccc(-c2ccccc2)cc1
solubility (mole fraction)
Conditions	in benzene	in ethanol	in ethyl acetate	in isobutanol	in isopropanol	in methanol	in methyl acetate	in n-butanol	in n-propanol
293.15 K	0.00101	0.00366	0.00654	0.00276	0.0039	0.00255	0.0051	0.00471	0.00426
298.15 K	0.00123	0.00436	0.00802	0.00349	0.00464	0.00304	0.00593	0.00559	0.00509
303.15 K	0.00149	0.00512	0.00923	0.00418	0.00563	0.0036	0.00704	0.00658	0.00598
308.15 K	0.00179	0.00606	0.0108	0.0051	0.00653	0.00424	0.00815	0.00775	0.00685
313.15 K	0.00214	0.0072	0.0124	0.0063	0.00779	0.00484	0.00942	0.00897	0.00817
318.15 K	0.00254	0.00831	0.0143	0.00781	0.00952	0.00584	0.0108	0.0105	0.00954
323.15 K	0.003	0.00962	0.0165	0.0093	0.0115	0.0066	0.0126	0.012	0.0112
328.15 K	0.00353	0.0109	0.019	0.0111	0.0134	0.0076	0.0145	0.0138	0.0132

— BigSolDB 2.1
